The target of this assay is T1, human mGlu2 receptor (Homo sapiens, UniProt Q14416).
T1 construct: expressed in transfected cells; co-transfected with rat EAAT1 and Galpha15
The assay is described as follows: Human mGlu2 Agonist FLIPR Assay. To be noted: hmGlu2 FLIPR assay, AV-12 cells, relative EC50. The format is cell-based. An excerpt: AV-12 cell lines, derived from Syrian Hamster fibroblasts and stably expressing the human mGlu2 receptor and co-transfected with the rat glutamate transporter EAAT 1 (Excitatory Amino Acid Transporter 1) and the Gα15 subunit, are used for these studies. The expression of Gα15 allows Gi-coupled receptors to signal through the phospholipase C pathway, resulting in the ability to measure receptor activation by a fluorometric calcium response assay. […]
Intracellular calcium levels are monitored before and after the addition of compounds using a Fluorometric Imaging Plate Reader (FLIPR, Molecular Devices). […] Results are analyzed using Prism v4.03 (GraphPad Software). […] After taking an initial 5-sec fluorescent read on the FLIPR instrument, a compound of the present invention is added to the cell plate (50 μL per well). […] The compound effect is measured as maximal minus minimal peak heights in relative fluorescent units (RFUs) corrected for basal fluorescence measured in the absence of glutamate. […] Agonist effects are quantified as percent stimulation induced by compound alone relative to the maximal glutamate response. All data are calculated as relative EC50 values using a four-parameter logistic curve fitting program (ActivityBase v5.3.1.22).

T1 sequence (Q14416 19-872): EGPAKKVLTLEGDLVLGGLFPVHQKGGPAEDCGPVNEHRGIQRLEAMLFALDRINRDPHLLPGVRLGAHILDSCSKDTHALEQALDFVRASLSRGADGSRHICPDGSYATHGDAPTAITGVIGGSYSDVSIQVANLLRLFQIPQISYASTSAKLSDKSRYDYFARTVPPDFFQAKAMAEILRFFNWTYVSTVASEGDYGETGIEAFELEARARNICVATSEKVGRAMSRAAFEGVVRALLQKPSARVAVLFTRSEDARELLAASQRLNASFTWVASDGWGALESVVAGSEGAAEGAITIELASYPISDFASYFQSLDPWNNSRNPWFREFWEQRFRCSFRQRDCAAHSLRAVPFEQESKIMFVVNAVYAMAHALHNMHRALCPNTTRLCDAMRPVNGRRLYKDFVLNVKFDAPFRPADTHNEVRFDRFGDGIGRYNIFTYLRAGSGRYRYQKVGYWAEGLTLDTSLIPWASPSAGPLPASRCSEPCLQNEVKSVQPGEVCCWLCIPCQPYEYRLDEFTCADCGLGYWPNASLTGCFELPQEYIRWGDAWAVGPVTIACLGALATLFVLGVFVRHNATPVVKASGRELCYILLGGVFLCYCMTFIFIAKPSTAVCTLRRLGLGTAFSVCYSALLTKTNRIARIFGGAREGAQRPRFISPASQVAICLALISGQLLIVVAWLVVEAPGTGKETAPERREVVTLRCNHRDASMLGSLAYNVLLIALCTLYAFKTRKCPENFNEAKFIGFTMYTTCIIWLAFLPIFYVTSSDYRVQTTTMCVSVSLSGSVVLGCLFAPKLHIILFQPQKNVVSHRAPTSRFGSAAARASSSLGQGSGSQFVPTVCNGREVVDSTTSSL

In general, EC50 refers to the concentration needed to bring the measured effect to its halfway point. High values mean a less potent agent, low ones a more potent agent. With `N[C@@]1(C(=O)O)C[C@@H](Sc2nnc[nH]2)[C@H]2[C@H](C(=O)O)[C@H]21` [Example 1, (1R,2S,4R,5R,6R)-2-Amino-4-(4H-1,2,4-triazol-3-ylsulfanyl)bicyclo[3.1.0]hexane-2,6-dicarboxylic acid], the EC50 was 0.023 µM.

Values taken from patent publication US8318184B2, “MGLU2 agonists” (Eli Lilly and Company, priority 2009, dated 2012).
